B1: PDGF: Platelet-derived growth factor, protein growth factor (Tonbo Biosciences) (protein, UniProt P01127 82-190, looked up)
Platelet-derived growth …: SLGSLTIAEPAMIAECKTRTEVFEISRRLIDRTNANFLVWPPCVEVQRCSGCCNNRNVQCRPTQVQLRPVQVRKIEIVRKKPIFKKATVTLEDHLACKCETVAAARPVT
modifications: PDGF-BB homodimer

Experiments:
[1] = tested on: primary human dermal fibroblasts (HDF); assay: Primary human dermal fibroblast (HDF) proliferation assay (2D) with or without wound exudate; assay type: cell-based; settings: for fibroblast proliferation in the absence of WE: FIG. 11, 2D fibroblast culture without WE (control); for HDF proliferation with wound exudate #78, plus PDGF / HDF proliferation with wound exudate #78: FIG. 15; for HDF proliferation with wound exudate #78, plus PDGF: compound + PDGF 20 ng/ml in medium + WE #78; for HDF proliferation with wound exudate #78: compound in medium + WE #78; for wound exudate-induced inhibition of fibroblast proliferation: FIG. 20, with wound exudate; for effect on PDGF-induced induction of proliferation in the absence of WE: with PDGF
Method: (§1) Primary human dermal fibroblasts (HDF) were purchased from CELLnTEC, Bern. They were routinely grown in Dulbecco's modified Eagle's medium (DMEM) containing 10% FCS, 2 mM glutamine, and 100 U/ml penicillin/100 μg/ml streptomycin. Media, antibiotics, and glutamine were bought from Lonza. The cells were used at passage 5-15. Cells were trypsinized and seeded at 5000 cells/well in 200 μl into the inner wells of 96-well plates. The outer wells were loaded with sterile water. The cells were allowed to adhere overnight and then incubated for 72 hours at 37° C. under the following conditions: graded compound concentrations or 20 ng/ml PDGF-BB (Tonbo Biosciences) in the absence or presence of different dilutions of sterile-filtered WE in medium. For control samples, 200 μl medium was added instead of specific stimuli. Alternatively, the cells were seeded into 384-well plates at 2500 cells/well directly together with test compounds or growth factors and WE or medium in a total volume of […].
(§2) At the end of the 72-hour incubation period, supernatants were removed for the determination of IL-1ß, and the cells were fixed with 4% paraformaldehyde (Morphisto) for 15 minutes at room temperature and washed 3 times with PBS. A control plate was fixed after the overnight adherence of the cells (day 1) to determine the starting cell number.
Total cellular protein was determined as a measure of cell number by staining the fixed cells with sulforhodamine B (SRB, Sigma). A 0.4% SRB solution in 1% acetic acid was added to the wells for 30 minutes. The wells were then washed with 1% acetic acid until the wash solution remained colorless. […] The average absorbance of the sample representing the day 1 starting cell number (for 96-well plates) was subtracted from the absorbance values of the WE-treated cells.
All experiments were carried out in triplicate for each sample and concentration, and means±standard deviation (SD) were used for the evaluation of the experiment. Results are expressed as percentage of control values for unstimulated cells.
(§3) Low molecular weight compounds (see list in Table 1) were dissolved in DMSO (Bioreagent for cell culture, Sigma) at 10 mM or 100 mM and diluted at least 1:1000 in medium for cellular assays (final DMSO concentration ≤0.1%).
(§4) Cells were incubated with compounds for 72 hours in proliferation assays and up to 8 days for FDM assay (refreshed after 4 days). When compounds were tested for their effect on WE stimulation, the incubation of cells with compounds was started and ended simultaneously with WE-incubation.

[2] = tested on: primary human dermal fibroblasts (HDF); assay: Fibroblast-derived matrix (FDM) formation assay (3D) with wound exudate; assay type: cell-based; settings: for 3D fibroblast culture (FDM formation), effect of PARP inhibitors: FIG. 7, WE from patient #78; for 3D fibroblast-derived matrix formation assay, activity: FIGS. 9 and 10
Method: HDF cells were seeded at 5000 cells/well on day −3 into 96-well tissue culture plates (1250 cells/well for 384-well plates), which had been pre-coated for 1 hour at 37° C. with 0.2% gelatin solution (Sigma). When the cells reached confluence (=day 0), a matrix promoting supplement (vitamin C: 2-phospho-L-ascorbic acid trisodium salt, 100 μg/ml; Sigma) was added together with test samples containing PDGF-BB, TGF-ß1 or graded concentrations of compounds −/+WE as described for the HDF proliferation assay. After 4 days, medium was replaced by fresh vitamin C—and stimulus—as well as compound-containing medium, maintaining the conditions initiated on day 0. TGF-ß1 and PDGF-BB were included as positive controls to promote FDM formation and cell growth, respectively. After a total incubation time of 8 days, FDM production was measured in fixed cultures via SRB staining and evaluated as described above. In some cases, the experiment was stopped and evaluated already on day 4.
as §3, §4

[3] = tested on: IL-1ß secretion by primary human dermal fibroblasts; assay: IL-1ß secretion in the HDF proliferation assay with wound exudate (ELISA); assay type: cell-based; settings: FIG. 20
Method: as §2
IL-1ß levels were determined with a commercial ELISA kit. The amount of IL-1ß contained in the wound exudate added to the cells was subtracted from the total IL-ß in the supernatants in order to determine the cytokine secreted by the cells.

PARP1 = PARP1 (Homo sapiens, UniProt P09874); settings: cited from earlier work
PARP1, sequence (P09874 whole entry, species assumed): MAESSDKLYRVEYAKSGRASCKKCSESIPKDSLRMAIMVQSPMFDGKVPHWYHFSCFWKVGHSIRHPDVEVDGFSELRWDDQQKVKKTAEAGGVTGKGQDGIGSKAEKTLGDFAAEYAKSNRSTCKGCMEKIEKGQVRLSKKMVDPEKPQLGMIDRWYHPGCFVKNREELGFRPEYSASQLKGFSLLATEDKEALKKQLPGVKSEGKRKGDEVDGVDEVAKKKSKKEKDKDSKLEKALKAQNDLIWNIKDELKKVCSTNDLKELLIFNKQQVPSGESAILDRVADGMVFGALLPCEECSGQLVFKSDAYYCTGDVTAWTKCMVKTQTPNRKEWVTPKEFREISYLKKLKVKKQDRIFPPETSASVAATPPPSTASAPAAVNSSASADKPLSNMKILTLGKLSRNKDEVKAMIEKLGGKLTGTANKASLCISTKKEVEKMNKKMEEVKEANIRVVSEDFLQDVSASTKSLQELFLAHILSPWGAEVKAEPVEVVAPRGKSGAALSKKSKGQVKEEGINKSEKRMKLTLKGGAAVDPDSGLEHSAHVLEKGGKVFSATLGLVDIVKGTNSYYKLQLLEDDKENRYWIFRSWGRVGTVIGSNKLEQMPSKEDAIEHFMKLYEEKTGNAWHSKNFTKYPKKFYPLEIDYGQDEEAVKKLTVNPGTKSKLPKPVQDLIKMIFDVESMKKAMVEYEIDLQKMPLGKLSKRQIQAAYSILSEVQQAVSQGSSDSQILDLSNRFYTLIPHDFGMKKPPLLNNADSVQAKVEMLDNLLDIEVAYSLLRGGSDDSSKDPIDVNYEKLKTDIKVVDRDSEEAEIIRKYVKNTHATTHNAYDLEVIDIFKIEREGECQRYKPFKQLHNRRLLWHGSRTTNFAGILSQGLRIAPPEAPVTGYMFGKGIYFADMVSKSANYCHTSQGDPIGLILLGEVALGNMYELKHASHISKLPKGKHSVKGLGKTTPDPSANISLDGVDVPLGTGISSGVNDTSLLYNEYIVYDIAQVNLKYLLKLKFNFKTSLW

PARP = settings: cited from earlier work
[4] = tested on: alpha-smooth muscle actin (α-SMA) in human dermal fibroblasts; assay: Immunolocalization of alpha-smooth muscle actin in 2D HDF culture; assay type: cell-based; settings: FIG. 16; absence of wound exudate; TGF-ß 20 ng/ml
Method: as §1
After fixation with paraformaldehyde, the cells were incubated for 1 hour at room temperature with a monoclonal mouse-anti-human antibody against alpha-smooth muscle actin (α-SMA) from e-Bioscience, washed 3 times with PBS and developed with an Alexa Fluor-labelled donkey-anti-mouse IgG (Molecular Probes). […]

Molecule	2D fibroblast culture (HDF proliferation), effect of PARP inhibitors ([1]; FIG. 8, WE from patient #78)	wound exudate-induced inhibition of fibroblast proliferation [1]	3D fibroblast culture (FDM formation), effect of PARP inhibitors [2]	wound exudate-induced IL-1ß secretion [3]	2D fibroblast culture (HDF proliferation), effect of PARP inhibitors ([1]; FIG. 9, WE from patient #43)	2D fibroblast culture (HDF proliferation), effect of PARP inhibitors ([1]; FIG. 10, WE from patient #78)	other results
O=C(c1cc(Cc2n[nH]c(=O)c3ccccc23)ccc1F)N1CCN(C(=O)C2CC2)CC1 [Olaparib]	strong and consistent positive effect	enhanced cell proliferation	strong and consistent positive effect	reducing IL-1ß secretion			fibroblast proliferation in the absence of WE [1]: either no effect on fibroblast proliferation in the absence of wound exudate, or only a marginal effect; HDF proliferation with wound exudate #78, plus PDGF [1]: even further enhanced by the addition of PDGF; HDF proliferation with wound exudate #78 [1]: dose-dependent increase of HDF proliferation; effect on PDGF-induced induction of proliferation in the absence of WE ([1]; no WE): either had no effect on PDGF-induced induction of proliferation or showed inhibition of the PDGF effect
COC1CCN(C(=O)c2cc(Cc3n[nH]c(=O)c4ccccc34)ccc2F)CC1 [AZD-2461]	strong and consistent positive effect	enhanced cell proliferation	strong and consistent positive effect	reducing IL-1ß secretion			fibroblast proliferation in the absence of WE [1]: either no effect on fibroblast proliferation in the absence of wound exudate, or only a marginal effect
2-phospho-L-ascorbic acid trisodium salt [vitamin C]							2D fibroblast culture, enhancement of PARP inhibitor compound effects by co-agent ([1]; FIG. 12, WE from patient #78, dexamethasone 3 nM, vitamin C 100 μg/ml): synergistically enhance the PARP inhibitor compound effects; 2D fibroblast culture, enhancement of PARP inhibitor compound effects by co-agent ([1]; FIG. 13, WE from patient #43): synergistically enhance the PARP inhibitor compound effects
CN(C)Cc1ccc(-c2nc3cccc4c3n2CCNC4=O)cc1 [AG-14351]	only a very weak effect at a concentration of 10 μM	enhanced cell proliferation	only a very weak effect at a concentration of 10 μM	reducing IL-1ß secretion			inhibits PARP1 with an 1050 (PARP1): low nM range
NC(=O)c1cccc(N)c1 [3-AB, 3-Aminobenzamide]		did not show any of these effects		did not show any of these effects	either inactive or exhibit a very weak activity	either inactive or exhibit a very weak activity	3D fibroblast-derived matrix formation assay, activity [2]: either inactive or only weakly active
NC(=O)c1cccc2cn(-c3ccc([C@@H]4CCCNC4)cc3)nc12 [niraparib]	does not show any activity	did not show any of these effects	does not show any activity	did not show any of these effects			inhibits PARP with an 1050 (PARP): low nM range
TGF-ß: Transforming growth factor beta							staining for myofibroblast marker alpha-smooth muscle actin (α-SMA) [4]: increases the staining for the myofibroblast marker alpha-smooth muscle actin (α-SMA)
CN(C)CC(=O)Nc1ccc2[nH]c(=O)c3ccccc3c2c1.Cl [PJ-34]					either inactive or exhibit a very weak activity	either inactive or exhibit a very weak activity	2D fibroblast culture, PARP inhibitor effect ± dexamethasone ± Vit. C ([1]; FIG. 12, WE from patient #78): only a weak effect; 2D fibroblast culture, PARP inhibitor effect ± dexamethasone ± Vit. C ([1]; FIG. 13, WE from patient #43): only a weak effect; 3D fibroblast-derived matrix formation assay, activity [2]: either inactive or only weakly active
Oc1cccc2c(O)nccc12 [1,5-IQD, 1,5-Isoquinolinediol]					either inactive or exhibit a very weak activity	either inactive or exhibit a very weak activity	3D fibroblast-derived matrix formation assay, activity [2]: either inactive or only weakly active
CNCc1ccc(-c2[nH]c3cc(F)cc4c3c2CCNC4=O)cc1 [Rucaparib]	strong and consistent positive effect	enhanced cell proliferation	strong and consistent positive effect	reducing IL-1ß secretion	strong and consistent positive effect	strong and consistent positive effect	fibroblast proliferation in the absence of WE [1]: either no effect on fibroblast proliferation in the absence of wound exudate, or only a marginal effect; HDF proliferation with wound exudate #78, plus PDGF [1]: even further enhanced by the addition of PDGF; HDF proliferation with wound exudate #78 [1]: dose-dependent increase of HDF proliferation; effect on PDGF-induced induction of proliferation in the absence of WE ([1]; no WE): either had no effect on PDGF-induced induction of proliferation or showed inhibition of the PDGF effect
B1							HDF proliferation in the presence of WE #78 ([1]; FIG. 14, WE #78, veliparib 10 μM, talazoparib 1 μM, PDGF 20 ng/ml): has no effect; HDF proliferation in the absence of WE ([1]; FIG. 14, no WE, veliparib 10 μM, talazoparib 1 μM, PDGF 20 ng/ml): induces HDF proliferation; HDF proliferation with wound exudate #78 [1]: inactive

Source: patent US11638709B2, “Rucaparib, Talazoparib, Veliparib, Olaparib and AZD 2461 for treating impaired skin wound healing” (AKRIBES BIOMEDICAL GMBH, priority 2017, dated 2023)
